In ChEMBL document CHEMBL5291721, “A preclinical secondary pharmacology resource illuminates target-adverse drug reaction associations of marketed drugs” (Nat Commun, 2023) one finds AC50 data, which are given here for 23 molecules.

For test [1], the target named is T1, Gastric inhibitory polypeptide receptor (Homo sapiens, UniProt P48546).
T1 sequence (P48546 whole entry): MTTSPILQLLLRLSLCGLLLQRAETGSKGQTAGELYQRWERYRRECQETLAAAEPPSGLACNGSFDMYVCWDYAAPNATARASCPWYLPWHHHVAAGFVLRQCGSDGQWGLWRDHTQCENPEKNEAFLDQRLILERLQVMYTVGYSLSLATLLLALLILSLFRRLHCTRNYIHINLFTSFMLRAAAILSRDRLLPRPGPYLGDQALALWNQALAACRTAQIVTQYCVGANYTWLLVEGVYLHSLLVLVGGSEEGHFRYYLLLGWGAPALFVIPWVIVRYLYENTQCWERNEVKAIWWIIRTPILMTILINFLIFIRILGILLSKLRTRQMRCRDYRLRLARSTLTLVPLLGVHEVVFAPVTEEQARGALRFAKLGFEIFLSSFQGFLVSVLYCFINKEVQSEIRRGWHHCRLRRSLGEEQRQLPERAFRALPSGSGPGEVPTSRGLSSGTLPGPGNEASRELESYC

Test [2] addresses 5-hydroxytryptamine receptor 7 (Homo sapiens, UniProt P34969).
Test [3] deals with 5-hydroxytryptamine receptor 6 (Homo sapiens, UniProt P50406).
Test [4] has as its target T2, Corticotropin-releasing factor receptor 2 (Homo sapiens, UniProt Q13324).
T2 sequence (Q13324 whole entry): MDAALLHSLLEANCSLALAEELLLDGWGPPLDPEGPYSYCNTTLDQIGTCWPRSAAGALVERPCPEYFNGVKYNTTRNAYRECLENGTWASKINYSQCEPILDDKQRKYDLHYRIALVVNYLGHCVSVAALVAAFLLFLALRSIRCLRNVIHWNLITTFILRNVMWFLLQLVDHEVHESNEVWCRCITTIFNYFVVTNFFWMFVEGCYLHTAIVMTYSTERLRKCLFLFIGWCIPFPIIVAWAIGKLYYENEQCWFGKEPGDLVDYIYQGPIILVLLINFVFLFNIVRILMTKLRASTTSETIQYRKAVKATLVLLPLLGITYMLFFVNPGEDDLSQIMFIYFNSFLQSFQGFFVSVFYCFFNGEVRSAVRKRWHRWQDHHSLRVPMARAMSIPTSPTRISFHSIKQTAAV

Test [5] has as its target T3, Neuropeptide Y receptor type 2 (Homo sapiens, UniProt P49146).
T3 sequence (P49146 whole entry): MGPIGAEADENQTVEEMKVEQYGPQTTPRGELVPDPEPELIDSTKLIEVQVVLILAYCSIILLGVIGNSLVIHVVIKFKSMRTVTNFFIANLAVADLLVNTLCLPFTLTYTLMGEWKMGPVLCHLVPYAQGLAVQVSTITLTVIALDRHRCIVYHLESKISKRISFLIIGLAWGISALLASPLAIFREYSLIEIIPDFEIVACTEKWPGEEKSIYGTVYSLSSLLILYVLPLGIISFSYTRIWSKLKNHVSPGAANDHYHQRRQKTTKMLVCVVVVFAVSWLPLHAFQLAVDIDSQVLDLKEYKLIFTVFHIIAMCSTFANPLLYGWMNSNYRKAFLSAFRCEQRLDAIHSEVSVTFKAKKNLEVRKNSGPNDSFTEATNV

The next test concerns the target Histamine H2 receptor (Homo sapiens, UniProt P25021).
The next test addresses T4, D(4) dopamine receptor (Homo sapiens, UniProt P21917).
T4 sequence (P21917 whole entry): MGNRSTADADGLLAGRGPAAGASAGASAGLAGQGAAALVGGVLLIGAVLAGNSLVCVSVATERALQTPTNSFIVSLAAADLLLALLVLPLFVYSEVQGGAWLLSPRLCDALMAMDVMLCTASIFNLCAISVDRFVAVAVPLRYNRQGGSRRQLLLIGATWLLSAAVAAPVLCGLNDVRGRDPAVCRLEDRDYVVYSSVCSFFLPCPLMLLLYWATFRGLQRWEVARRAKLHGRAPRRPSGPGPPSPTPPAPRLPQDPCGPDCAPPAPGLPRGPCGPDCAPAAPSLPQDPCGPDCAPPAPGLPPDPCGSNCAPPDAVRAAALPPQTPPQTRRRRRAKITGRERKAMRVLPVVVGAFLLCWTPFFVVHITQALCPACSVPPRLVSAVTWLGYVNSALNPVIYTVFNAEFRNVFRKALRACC

Test [6] has as its target T5, Alpha-1A adrenergic receptor (Homo sapiens, UniProt P35348).
T5 sequence (P35348 whole entry): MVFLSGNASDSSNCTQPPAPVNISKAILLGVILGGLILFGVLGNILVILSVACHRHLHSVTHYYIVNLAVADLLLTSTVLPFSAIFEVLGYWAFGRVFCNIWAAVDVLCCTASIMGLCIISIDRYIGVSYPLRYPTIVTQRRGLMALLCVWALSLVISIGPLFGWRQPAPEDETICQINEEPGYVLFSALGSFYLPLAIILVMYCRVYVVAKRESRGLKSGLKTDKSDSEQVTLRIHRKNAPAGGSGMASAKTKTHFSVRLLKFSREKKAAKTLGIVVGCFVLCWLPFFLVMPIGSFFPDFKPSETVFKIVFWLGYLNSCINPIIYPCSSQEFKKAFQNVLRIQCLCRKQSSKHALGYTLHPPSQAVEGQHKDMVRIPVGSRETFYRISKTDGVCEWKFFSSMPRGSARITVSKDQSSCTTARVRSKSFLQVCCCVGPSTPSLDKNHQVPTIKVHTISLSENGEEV

In test [7] the target is Sodium channel protein type 5 subunit alpha (Homo sapiens, UniProt Q14524). In kind it is functional, cell-based.
In another test the target is Histamine H1 receptor (Homo sapiens, UniProt P35367). In kind it is functional, cell-based.

The structures appear in SMILES notation.
Also: assay procedure not described here.

Sequence of Histamine H1 receptor (P35367 whole entry): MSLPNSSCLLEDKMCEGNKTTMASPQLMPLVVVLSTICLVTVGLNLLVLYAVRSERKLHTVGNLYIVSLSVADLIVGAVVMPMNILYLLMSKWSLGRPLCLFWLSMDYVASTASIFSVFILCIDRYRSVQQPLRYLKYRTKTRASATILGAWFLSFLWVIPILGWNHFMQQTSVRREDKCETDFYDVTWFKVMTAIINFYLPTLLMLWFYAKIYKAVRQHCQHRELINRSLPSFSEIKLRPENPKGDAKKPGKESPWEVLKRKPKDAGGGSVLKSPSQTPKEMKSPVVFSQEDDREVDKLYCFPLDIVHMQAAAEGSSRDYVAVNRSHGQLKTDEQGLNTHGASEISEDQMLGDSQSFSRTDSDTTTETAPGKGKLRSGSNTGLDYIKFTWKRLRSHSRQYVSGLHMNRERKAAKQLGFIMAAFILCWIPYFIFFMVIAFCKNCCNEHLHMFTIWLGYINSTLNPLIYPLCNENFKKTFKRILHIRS
Sequence of Histamine H2 receptor (P25021 whole entry): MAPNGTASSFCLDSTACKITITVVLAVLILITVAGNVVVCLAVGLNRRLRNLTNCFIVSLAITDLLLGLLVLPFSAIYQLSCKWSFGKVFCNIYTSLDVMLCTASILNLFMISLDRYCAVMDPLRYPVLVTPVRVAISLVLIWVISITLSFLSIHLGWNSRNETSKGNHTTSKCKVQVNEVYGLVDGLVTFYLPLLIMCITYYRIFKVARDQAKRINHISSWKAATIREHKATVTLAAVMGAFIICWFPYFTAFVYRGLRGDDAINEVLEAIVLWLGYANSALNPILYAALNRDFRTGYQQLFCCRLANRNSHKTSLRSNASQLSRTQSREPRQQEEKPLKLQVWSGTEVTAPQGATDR
Sequence of 5-hydroxytryptamine receptor 6 (P50406 whole entry): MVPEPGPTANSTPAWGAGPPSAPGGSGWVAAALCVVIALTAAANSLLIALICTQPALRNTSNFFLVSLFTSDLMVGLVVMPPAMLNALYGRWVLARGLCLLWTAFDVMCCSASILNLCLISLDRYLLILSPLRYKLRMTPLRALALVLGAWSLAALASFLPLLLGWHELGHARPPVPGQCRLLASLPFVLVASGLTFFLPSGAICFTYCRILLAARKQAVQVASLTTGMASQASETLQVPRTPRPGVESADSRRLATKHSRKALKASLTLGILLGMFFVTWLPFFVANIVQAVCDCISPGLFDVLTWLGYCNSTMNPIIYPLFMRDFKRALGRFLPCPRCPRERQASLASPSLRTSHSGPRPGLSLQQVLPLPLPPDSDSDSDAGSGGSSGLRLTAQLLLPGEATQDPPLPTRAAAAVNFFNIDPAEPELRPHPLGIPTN
Sequence of Sodium channel protein type 5 subunit alpha (Q14524 whole entry): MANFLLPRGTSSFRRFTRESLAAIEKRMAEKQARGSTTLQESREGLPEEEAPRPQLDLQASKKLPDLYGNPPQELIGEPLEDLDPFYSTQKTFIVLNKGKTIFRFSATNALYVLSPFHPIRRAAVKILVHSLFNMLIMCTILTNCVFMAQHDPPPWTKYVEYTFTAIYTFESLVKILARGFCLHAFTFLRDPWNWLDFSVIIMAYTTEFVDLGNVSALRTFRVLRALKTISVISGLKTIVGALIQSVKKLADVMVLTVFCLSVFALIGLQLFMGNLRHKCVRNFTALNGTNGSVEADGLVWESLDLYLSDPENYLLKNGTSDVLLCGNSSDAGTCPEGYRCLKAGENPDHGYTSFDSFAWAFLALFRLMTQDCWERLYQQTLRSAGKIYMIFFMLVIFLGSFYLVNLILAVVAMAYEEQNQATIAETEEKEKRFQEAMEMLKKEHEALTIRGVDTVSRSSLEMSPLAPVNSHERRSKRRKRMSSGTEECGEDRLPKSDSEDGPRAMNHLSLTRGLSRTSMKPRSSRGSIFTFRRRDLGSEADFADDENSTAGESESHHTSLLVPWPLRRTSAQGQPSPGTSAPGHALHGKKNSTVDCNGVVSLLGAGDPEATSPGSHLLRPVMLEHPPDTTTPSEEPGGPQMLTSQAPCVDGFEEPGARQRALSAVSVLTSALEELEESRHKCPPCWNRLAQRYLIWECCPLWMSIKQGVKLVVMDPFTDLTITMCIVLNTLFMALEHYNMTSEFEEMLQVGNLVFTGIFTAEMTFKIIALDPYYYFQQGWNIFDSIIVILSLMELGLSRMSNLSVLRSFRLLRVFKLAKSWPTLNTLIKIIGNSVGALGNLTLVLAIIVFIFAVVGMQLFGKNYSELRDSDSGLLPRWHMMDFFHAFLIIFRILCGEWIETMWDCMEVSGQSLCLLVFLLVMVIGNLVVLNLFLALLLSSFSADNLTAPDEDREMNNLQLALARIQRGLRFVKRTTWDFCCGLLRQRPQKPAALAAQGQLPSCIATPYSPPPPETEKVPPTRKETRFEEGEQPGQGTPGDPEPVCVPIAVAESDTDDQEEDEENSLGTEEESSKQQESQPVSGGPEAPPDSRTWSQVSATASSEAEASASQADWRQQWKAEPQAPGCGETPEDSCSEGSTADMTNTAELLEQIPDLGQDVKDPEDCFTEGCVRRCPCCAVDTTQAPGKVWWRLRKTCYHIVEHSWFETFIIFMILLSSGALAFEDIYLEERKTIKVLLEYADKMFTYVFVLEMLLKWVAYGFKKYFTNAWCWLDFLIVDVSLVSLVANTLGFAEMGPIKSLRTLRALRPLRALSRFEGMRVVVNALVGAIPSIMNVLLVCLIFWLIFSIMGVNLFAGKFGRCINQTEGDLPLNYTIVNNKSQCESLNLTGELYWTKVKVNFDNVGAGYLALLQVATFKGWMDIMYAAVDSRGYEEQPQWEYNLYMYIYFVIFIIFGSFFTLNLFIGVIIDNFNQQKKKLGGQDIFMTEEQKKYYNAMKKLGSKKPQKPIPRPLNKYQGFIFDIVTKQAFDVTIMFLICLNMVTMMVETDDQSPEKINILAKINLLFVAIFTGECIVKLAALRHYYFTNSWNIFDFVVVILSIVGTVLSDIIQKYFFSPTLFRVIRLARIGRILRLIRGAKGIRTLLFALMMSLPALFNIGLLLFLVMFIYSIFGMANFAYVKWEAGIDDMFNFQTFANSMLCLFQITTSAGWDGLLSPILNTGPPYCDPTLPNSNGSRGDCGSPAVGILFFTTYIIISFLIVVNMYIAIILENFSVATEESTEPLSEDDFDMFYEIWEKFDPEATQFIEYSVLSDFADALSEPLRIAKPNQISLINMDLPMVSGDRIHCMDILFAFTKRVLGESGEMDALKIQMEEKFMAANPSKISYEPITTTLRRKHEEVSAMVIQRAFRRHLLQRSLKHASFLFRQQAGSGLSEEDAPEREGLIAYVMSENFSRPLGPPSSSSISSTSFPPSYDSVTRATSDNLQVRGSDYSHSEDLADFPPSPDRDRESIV
Sequence of 5-hydroxytryptamine receptor 7 (P34969 whole entry): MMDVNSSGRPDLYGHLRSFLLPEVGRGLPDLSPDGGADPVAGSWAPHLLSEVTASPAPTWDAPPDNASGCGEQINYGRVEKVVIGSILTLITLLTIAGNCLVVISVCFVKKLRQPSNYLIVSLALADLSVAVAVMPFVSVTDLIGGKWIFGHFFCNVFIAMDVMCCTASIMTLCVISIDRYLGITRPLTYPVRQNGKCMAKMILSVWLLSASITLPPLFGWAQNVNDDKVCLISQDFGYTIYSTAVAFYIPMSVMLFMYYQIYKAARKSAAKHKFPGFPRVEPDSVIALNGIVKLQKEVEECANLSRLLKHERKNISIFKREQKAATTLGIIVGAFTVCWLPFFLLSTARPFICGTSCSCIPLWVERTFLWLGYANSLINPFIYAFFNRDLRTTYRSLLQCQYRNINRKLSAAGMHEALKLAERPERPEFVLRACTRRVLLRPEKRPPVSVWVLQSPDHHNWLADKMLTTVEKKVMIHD

What is called AC50 is the concentration giving half of the maximal activity seen. A lower AC50 goes with greater potency. As to `CNS(=O)(=O)Cc1ccc2[nH]cc(CCN(C)C)c2c1`, the AC50 in test [1] is above 30 µM; in test [2], 4.67 µM; in test [3], above 10 µM; in [4], above 30 µM; in test [5], above 30 µM; on Histamine H2 receptor, above 10 µM. For the same molecule, the AC50 (on D(4) dopamine receptor; in test [6]) was above 10 µM throughout.

Regarding `CCCN(CCC)C(=O)C(CCC(=O)O)NC(=O)c1ccccc1` (stereo not drawn) [PROGLUMIDE], the AC50 in test [1] was above 30 µM; in test [4], above 30 µM; in [5], above 30 µM; at Histamine H2 receptor, above 10 µM; on D(4) dopamine receptor, above 10 µM.

`Clc1ccc(CCCOCCCN2CCCCC2)cc1` [PITOLISANT] yielded an AC50 in [7] of 32 µM.

Consider `COC(=O)C1=C(C)NC(C)=C(C(=O)OC(C)(C)CN(C)CCC(c2ccccc2)c2ccccc2)C1c1cccc([N+](=O)[O-])c1` (stereo not drawn) [LERCANIDIPINE], for which the AC50 in test [7] was above 50 µM.

On Histamine H1 receptor, `CCC1(CC)C(=O)NCC(C)C1=O` (stereo not drawn) [METHYPRYLON] registered an AC50 above 30 µM.

Take `COc1ccc2c3c1O[C@H]1[C@@H](O)C=C[C@H]4[C@@H](C2)N(C)CC[C@@]341` [CODEINE]: the AC50 in test [7] is above 30 µM; in test [1], above 30 µM; in test [2], above 10 µM; in test [3], above 10 µM; in [4] it was above 30 µM; in test [5] it was above 30 µM. In addition, the AC50 (on Histamine H2 receptor; on D(4) dopamine receptor; in test [6]) was above 10 µM in each case.

For the molecule `CCCc1nc(C(C)(C)O)c(C(=O)OCc2oc(=O)oc2C)n1Cc1ccc(-c2ccccc2-c2nnn[nH]2)cc1` [OLMESARTAN MEDOXOMIL], the AC50 in test [1] is above 30 µM; in test [2], above 10 µM; in test [3], above 10 µM; in test [4] it was above 30 µM; in test [5], above 50 µM; at D(4) dopamine receptor, above 10 µM. In addition, in test [6], the AC50 is above 10 µM.

On to `CN1CCN(CC/C=C2/c3ccccc3Sc3ccc(S(=O)(=O)N(C)C)cc32)CC1` [THIOTHIXENE], for which the AC50 in test [1] is above 30 µM; in test [2], 0.254 µM; in test [3], 0.455 µM; in [4] it was above 30 µM; in [5], above 30 µM; at Histamine H2 receptor, 0.145 µM. The values for the AC50 (at D(4) dopamine receptor; in test [6]) were 0.78 µM and 0.0624 µM, respectively.

Regarding `CCc1c(Cl)c(O)c(Cl)c(O)c1C(=O)O[C@H]1[C@H](O)[C@H](OC)[C@H](OC/C2=C\C=C\C[C@H](O)/C(C)=C/[C@H](CC)[C@@H](O[C@@H]3OC(C)(C)[C@@H](OC(=O)C(C)C)[C@H](O)[C@@H]3O)/C(C)=C/C(C)=C/C[C@@H]([C@@H](C)O)OC2=O)O[C@@H]1C` [FIDAXOMICIN], the AC50 is above 30 µM in [1]; above 30 µM in test [4]; above 30 µM in [5]; above 10 µM at Histamine H2 receptor; above 10 µM at D(4) dopamine receptor; above 10 µM in test [6].

In turn, `CN1CCC(=C2c3ccccc3CCc3sccc32)CC1` [PIZOTYLINE] returned an AC50 at Histamine H1 receptor of 0.0681 µM.

At Histamine H1 receptor, `O=C(NCCNCC(O)COc1ccc(O)cc1)N1CCOCC1` (stereo not drawn) [XAMOTEROL] had an AC50 above 30 µM.

Molecule `CC(C)(C)c1cc(C(C)(C)C)c(NC(=O)c2c[nH]c3ccccc3c2=O)cc1O` [IVACAFTOR] showed an AC50 on Histamine H2 receptor above 10 µM.

In [7], `CC(CC(c1ccccc1)c1ccccc1)NC(C)(C)C` (stereo not drawn) [TERODILINE] showed an AC50 of 8.65 µM.

`CC(C)OC(=O)CCC/C=C\C[C@@H]1[C@@H](CC[C@@H](O)CCc2ccccc2)[C@H](O)C[C@@H]1O` [LATANOPROST] displayed an AC50 on Histamine H1 receptor above 30 µM.

Molecule `CC[C@@H]1C(=O)OC[C@@H]1Cc1cncn1C` [PILOCARPINE] displayed an AC50 at Histamine H1 receptor above 30 µM.

Turning to `N#Cc1ccc([C@H]2CCc3cncn32)c(F)c1` [OSILODROSTAT], the AC50 (in test [2]; in test [3]; in [5]; at Histamine H2 receptor; on D(4) dopamine receptor; in [6]) was above 10 µM throughout.

As for `CCCCc1ncc(/C=C(\Cc2cccs2)C(=O)O)n1Cc1ccc(C(=O)O)cc1` [EPROSARTAN], the AC50 in [1] is above 30 µM; in test [2], above 10 µM; in test [3], above 10 µM; in test [4] it was above 30 µM; in [5], above 30 µM; on Histamine H2 receptor it was above 10 µM. The AC50 at D(4) dopamine receptor is above 10 µM; in test [6] it was above 10 µM; on Histamine H1 receptor, above 30 µM.

On Histamine H1 receptor, `NCC(=O)CCC(=O)O` [AMINOLEVULINIC ACID] showed an AC50 above 30 µM.

`COC(=O)C1=C(C)NC(C)=C(C(=O)OC2CCCN(Cc3ccccc3)C2)C1c1cccc([N+](=O)[O-])c1` (stereo not drawn) [BENIDIPINE] came in with an AC50 in [7] above 50 µM.

Take `CN1C(=O)C(O)N=C(c2ccccc2)c2cc(Cl)ccc21` (stereo not drawn) [TEMAZEPAM]: the concentration at half-maximal activity (AC50) in test [1] was above 30 µM; in test [4], above 30 µM; in [5], above 30 µM; on Histamine H2 receptor, above 10 µM; on D(4) dopamine receptor, above 10 µM; in test [6], above 10 µM.

In turn, `CCN(CC)C(=O)N[C@H]1C[C@@H]2c3cccc4[nH]cc(c34)C[C@H]2N(C)C1` [TERGURIDE] yielded an AC50 on Histamine H1 receptor of 7.49 µM.

In test [7], `CC(=O)O[C@H]1CC[C@@]2(C)C(=CC[C@@H]3[C@@H]2CC[C@]2(C)C(c4cccnc4)=CC[C@@H]32)C1` [ABIRATERONE ACETATE] showed an AC50 above 30 µM.

Regarding `C/C(O)=C(\C#N)C(=O)Nc1ccc(C(F)(F)F)cc1` [TERIFLUNOMIDE], the AC50 in test [7] is above 50 µM.
